Test results reported in PMC9455738, “Low-Dose Near-Infrared Light-Activated Mitochondria-Targeting Photosensitizers for PDT Cancer Therapy” (International Journal of Molecular Sciences, 2022).
Read-outs that look alike come from different tables or passages of the source.

Columns and labels:
Format in all cases: cell-based, human
A2780 cells = experiment: Resazurin cytotoxicity, dark and after white light projector irradiation (>600 nm), A2780
Experimental: (§1) Therefore, the cytotoxicity of the Pc-based compounds was evaluated against different cell lines both under irradiation and in the dark. Compounds LC31, MLC31, and DMLC31Pt, as well as cisplatin were screened against several cancer cell lines representative of human cervical cancer (HeLa), cisplatin-sensitive human ovarian carcinoma (A2780), cisplatin-resistant ovarian endometrioid adenocarcinoma (A2780/CP70), and non-cancerous fibroblast (MRC-5) cell lines. […]
(§2) Human cervical carc in oma cells (HeLa) were cultured in DMEM (Gibco) supplemented with 5% fe t a l calf serum (FCS, Gibco), 100 U/mL penicillin, 100 µg/mL st re pto myc i n . The normal human fe t a l lung fibroblast cell line (MRC‐5) wa s grown in MEM medium (Gibco) supplemented with 10% FCS (Gibco), penicillin (100 U/mL), and st re pto myc i n (100 µg/mL). The human ovarian carc in oma A2780 cell line and a cisplatin‐resistant subline CP70 were cultured in RPMI‐1640 medium (Gibco) supplemented with 10% FCS (Gibco), penicillin (100 U/mL), and st re pto myc in (100 μg/mL). The cells were cultured at 37 °C an d in 5% CO2 humidified at mo sph e re .
(§3) Cy to toxicit y Determination
(§4) The c y totoxic ity of the PSs in the dark and upon light irradiation was evaluated in several cell lines, using a re sa zu r in‐based fluorometric cell viability assay (Sigma‐Aldrich, Darmstadt, Germany). Stock solutions of the Pc agents (5 mM) were prepared in DMF and sto re d in the dark. The sto c k solutions were further diluted with co mp l ete medium to the desired working concentrations. Fo r an exp eriment , 100 µL aliquots of cells in growth medium were seeded in 96‐well plates (density of 2.5 × 10^3 cells/well fo r HeLa, 4 × 10^3 cells/well fo r A2780, and 1.5 × 10^3 cells/well fo r MRC‐5 cells) and incubated at 37 °C, 5% CO2 and 100% humidity. […] At the end of the incubation period, fluorescence of the highly re d fluorescent re so r u f in product (λex = 540 nm, λem = 590 nm) was quantified using a SpectraMax M5 microplate re a d e r (Molecular Device, San Jose, USA). […]

MRC-5 cells = experiment: Resazurin cytotoxicity, dark and after white light projector irradiation (>600 nm), MRC-5
Experimental: as §1, §2, §3, §4

A2780/CP70 cells = experiment: Resazurin cytotoxicity, dark and after white light projector irradiation (>600 nm), A2780/CP70
Experimental: as §1, §2, §3, §4

HeLa cells = experiment: Resazurin cytotoxicity, dark and after white light projector irradiation (>600 nm), HeLa
Experimental: as §1, §2, §3, §4

N.N.[Cl][Pt][Cl] [cisplatin, Cis-[PtCl2(NH3)2]]
p.i. A2780 (A2780 cells; 6.96 J cm^−2): 0.7
IC50 (A2780 cells; 4 h incubation in the dark, further 72 h incubation, read-out: IC50 A2780 Dark): 2.8 µM
IC50 (A2780 cells; 4 h incubation, white light projector cutoff below 600 nm, 5.8 mW cm^−2, 6.96 J cm^−2, read-out: IC50 A2780 Light): 4 µM
p.i. MRC-5 (MRC-5 cells; MRC-5, 6.96 J cm^−2): 1.2
IC50 (MRC-5 cells; MRC-5, 4 h incubation, white light projector cutoff below 600 nm, 5.8 mW cm^−2, 6.96 J cm^−2, read-out: IC50 MRC-5 Light): 4.5 µM
IC50 (MRC-5 cells; MRC-5 non-cancerous fibroblast, 4 h incubation in the dark, read-out: IC50 MRC-5 Dark): 5.4 µM
IC50 (A2780/CP70 cells; A2780/CP70 (cisplatin resistant), 4 h incubation in the dark, read-out: IC50 A2780/CP70 Dark): 102 µM
p.i. A2780/CP70 (A2780/CP70 cells; A2780/CP70, 6.96 J cm^−2): 0.79
IC50 (A2780/CP70 cells; A2780/CP70, 4 h incubation, white light projector cutoff below 600 nm, 5.8 mW cm^−2, 6.96 J cm^−2, read-out: IC50 A2780/CP70 Light): 129 µM
p.i. HeLa (phototoxicity index, IC50 dark / IC50 light) (HeLa cells; 6.96 J cm^−2): 0.76
IC50 (HeLa cells; 4 h incubation in the dark, further 72 h incubation, read-out: IC50 HeLa Dark): 1.3 µM
IC50 (HeLa cells; 4 h incubation, white light projector cutoff below 600 nm, 5.8 mW cm^−2, 6.96 J cm^−2, further 72 h, read-out: IC50 HeLa Light): 1.7 µM
